A melting point compilation (Tetko et al.; mined from patent text by program, amines drawn as free bases though some values may be those of a salt)

melting point | Compound
135 to 136 °C | CC(C)N(C(=O)n1oc(=O)n(C)c1=O)c1ccc(F)cc1
56 to 57 °C | COc1cc(CCC(=O)CC(=O)c2ccc(F)cc2)ccc1O
60 to 63 °C | Cc1cc(Cn2nc(C(F)(F)C(F)(F)F)nc2C(F)(F)F)ccc1N
121 to 122 °C | COc1ccc2sc(C(=O)OCC(C)(C)C(O)C(C)(C)C)cc2c1 (configuration not stated)
89 to 90 °C | CCOC(=O)c1cc2cc(C=O)cc(C(C)CC)c2oc1=O (configuration not stated)
149 to 151 °C | C[C@H]1C[C@@](O)(c2cccc(S(=O)(=O)c3ccc4c(c3F)CCC(=O)N4C)c2)CCO1
92 to 94 °C | C=CCNC(=O)N1CC(Oc2ccc(F)cc2)C1
159 to 160 °C | CC(C)COC(=O)C1(F)C(=O)NC(=O)NC1O/N=C\c1ccco1 (configuration not stated)
66 to 67 °C | Cc1c(C)c2c(c(C)c1N)CC(C)(CN(C)C)O2 (configuration not stated)
> 200 °C | COc1cc(CC(=O)Nc2ccc(I)cc2)ccc1NC(=O)Nc1ccccc1C
150 to 153 °C | Oc1ccc2c(c1)CCC(CNCC(O)c1ccc(Cl)cc1)C2 (configuration not stated)
179 to 180 °C | CCN(CC)c1cc(-c2ccco2)ncn1
60 to 62 °C | CC(C)Oc1ccc(CCCOc2cc(CCC(=O)O)n(-c3ccccc3)n2)c(Oc2ccc(Cl)cc2Cl)n1
108 °C | COc1ccc(S(=O)C(C)(CC=C(C)C)C(=O)NO)cc1 (configuration not stated)
195 °C | CC(C)Cn1c(=O)n(C)c(=O)c2c(SC(C)C)c(Cn3cnc4ccccc43)sc21
171 to 172 °C | CCOc1ccc2nc(CN3CCN(c4ccc(Cl)cc4Cl)CC3)cn2c1
178 to 180 °C | Cc1c(C)c2ccc(OCC(O)CN3CCC(NC(=O)c4ccccc4)CC3)cc2oc1=O (configuration not stated)
173 to 175 °C | CCOC(=O)c1cn(CC)c2cc(-c3csc(CN(C)C(C)=O)n3)c(F)cc2c1=O
113 to 117 °C | NS(=O)(=O)c1c(Cl)sc(Cl)c1Br

melting point | Compound
86.7 °C | COC(=O)C(C)NC(=O)C1C(C)(C)CCC1(C)C (configuration not stated)
105 to 112 °C | CCON=C(C)C1CCC(=O)CC1=O (configuration not stated)
150 °C | Cc1cc(COc2nn3c(-c4ccccc4F)nnc3cc2C2CCC2)no1
268 °C | CCOP(=O)(OCC)C1CCc2c(-n3cccc3)c(C(F)(F)F)cc3[nH]c(=O)c(=O)n1c23 (configuration not stated)
75 to 77 °C | CCCCCCn1cnc2cnc3ccccc3c21
152 to 154 °C | COc1ccc(-c2c(Cl)nc(C)nc2NS(=O)(=O)c2ccc(OC)cc2)cc1
83 to 84 °C | C[C@H](O)CCC[C@H](O)CCCCCc1cccc(O)c1C(=O)O
80 to 85 °C | OC(CCn1cccn1)c1ccc(OCc2ccccc2)cc1 (configuration not stated)
273 to 275 °C | O=C1N(Cc2ncccc2C(F)(F)F)c2ccccc2C12COc1c(Cl)cc3c(c12)OCCO3 (configuration not stated)
63 to 64 °C | CCCC(C)c1nn(-c2ccc(C(F)(F)F)cn2)cc1C=O (configuration not stated)
217 to 218 °C | Cc1nc2cc(C)c(OCC(C)(C)CS(N)(=O)=O)nn2n1
168 °C | CC(=S)NC[C@H]1CN(c2ccc(N3CCN(C)C3=O)c(F)c2)C(=O)O1
95 to 96 °C | OCCN(Cc1ccccc1)c1nc2ccccc2s1
104 °C | CCCCCCCCCCCCCCCC1CCCC(c2ccc(O)cc2)(c2ccc(O)cc2)C1 (configuration not stated)
100 to 101 °C | COc1ccc(CCc2oc3ccc(Br)cc3c2C(C)=O)cc1
32 to 34 °C | CCOC(=O)c1c(C(F)(F)F)nc(OC)c(C#N)c1OC
204 °C | CCc1c(C=CC(=O)O)ccc2c1OCO2
134 to 135 °C | O=C(Nc1ccccc1)c1cccc(Nc2ccccc2)c1
213 to 214 °C | COc1cc(C=CC(=O)Nc2cnc3c(C)c(Cl)ccc3c2-c2ccccc2C)cc(OC)c1OC(C)=O

melting point | Compound
190 °C | Nc1c([N+](=O)[O-])cnn1-c1c(Cl)cc(C(F)(F)F)cc1Cl
88 to 89 °C | Cc1ccc(C)c(OCc2ccccc2C(=O)c2ccnn2C)c1
> 300 °C | NNC(=O)c1cnc2c(=O)[nH]c3ccccc3n2c1=O
210 to 212 °C | COc1cc2occ(C(=O)Nc3cccnc3)c2cc1Br
146 °C | COc1ccnc(CSc2nc3c(C(F)(F)F)cccc3[nH]2)c1
121 to 122 °C | Cc1c(C)n(C2CC2)c2c(OCc3ccccc3)nncc12
190 to 191 °C | O=C(C=Cc1ccc(Cl)c(Cl)c1)C1C(=O)CCC1=O
175 to 176 °C | CC(C)Nc1cccnc1N1CCN(C(=O)c2ccc(C(=O)N3CCNCC3)cc2)CC1
114 to 116 °C | CN(Cc1cc2c(=O)c(C(=O)NCc3ccc(Cl)cc3)cn(C)c2o1)CC(O)c1nccs1 (configuration not stated)
111 to 112 °C | CCCCCCc1c(C(=O)O)sc2ccsc12
186 to 188 °C | COC(=O)C(Cc1cc(C)c(Oc2ccc(O)c(Cc3ccc(OC)nc3)c2)c(C)c1)NC(C)=O (configuration not stated)
174 to 175 °C | O=C(O)c1cc2c(s1)C(=O)CCC2
99 to 100 °C | CCOC(=O)c1c(Cn2cnc3ccccc32)nc2cc(OC)c(OC)cc2c1-c1ccc(OC)c(OC)c1
166 to 169 °C | OC(c1ccccn1)c1cc2ccncc2[nH]1 (configuration not stated)
133 to 134 °C | O=C1OC(CI)CN1c1cc(F)c(-c2cccnc2)c(F)c1 (configuration not stated)
282 to 284 °C | CCCCn1c(=O)c2c(NC)n[nH]c2n(Cc2ccccc2)c1=O
200 to 202 °C | CC1(C)CC2(CC(C)(C)c3ccc(Oc4ccc([N+](=O)[O-])cc4)cc32)c2cc(Oc3ccc([N+](=O)[O-])cc3)ccc21
172 to 177 °C | CN1CCN(C(=S)Cc2ccc(S(C)(=O)=O)cc2)CC1
249 to 251 °C | CSc1ccc(C(=O)C(=O)c2ccc(Cl)c(Cl)c2)cc1

Continued, compound first:

Compound | melting point
CC(=O)N1CCC2(CC1)Cc1cc([N+](=O)[O-])ccc1O2 | 149 to 150 °C
CNC(=O)C(Cc1ccccc1)NC(=O)Nc1n[nH]c(=S)s1 (configuration not stated) | 228 °C
CCCCn1c(=O)n(CCC(C)(O)C#CCN(CCC)CCC)c(=O)c2c1ncn2CCC (configuration not stated) | 101 °C
COC(=O)C12OC1(Cc1ccc(Cl)cc1)CCC2(C)C (configuration not stated) | 86 to 87 °C
CC(=O)c1ccc(-c2ccc(O)c(F)c2)cc1 | 155 to 158 °C
CCCCn1c(C=O)cnc1Cc1c(F)cccc1Cl | 88 to 90 °C
O=c1[nH]ncc2[nH]c(-c3ccc(OC(F)F)c(OC4CC4)c3)c(Cl)c12 | 281 to 283 °C
CCOc1cc(CO)cc(OCc2nc(-c3ccccc3)oc2C)c1 | 103 to 104 °C
COC(=O)c1ccc(OCCCOc2cc3c(cc2O)CCO3)cc1 | 133 to 135 °C
CCC(C)N1CN(C)C(=O)N(c2nc3c(s2)C(=O)CC(C)(C)C3)C1 (configuration not stated) | 126 to 127 °C
CCC(C)(Oc1ccc(OCc2cc(-c3ccc(O)cc3)no2)cc1)C(=O)O (configuration not stated) | 142 to 144 °C
CCOc1cc(-c2cc(C(F)(F)F)n3ncc(-c4ccncc4)c3n2)ccc1C(F)(F)F | 251 °C
COc1ccc(N2CCN(c3c(C)c4c(c(OC)c3C)OC(C)C4)CC2)cc1F (configuration not stated) | 120 to 122 °C
O=C(Cn1nc(-c2ccccc2O)nc1-c1ccccc1O)NCCOCCO | 173 to 174 °C
Cc1ccccc1C(=O)Nc1ccc(C(=O)N2CCc3cn(C)nc3-c3sccc32)cc1 | 257 to 260 °C
CC(=NOCc1ccccc1Nc1c(Cl)ccc(C)c1Cl)C(=O)O | 166 to 171 °C
CCOP(=O)(C[C@H]1CCN[C@@H](C(N)=O)C1)OCC (relative stereo) | 155 to 158 °C
O=C(NNC(=O)C(F)(F)C(O)(Cn1cncn1)c1ccc(F)cc1F)c1ccc(F)cc1 (configuration not stated) | 127 to 130 °C
O=c1cc(CO)oc2cc(S)ccc12 | 139 to 140 °C
COCOc1cc(OC)ccc1C=O | 55 to 56 °C
COc1ccc(-c2[nH]nc3c2C(=O)c2c(NC=O)cccc2-3)cc1 | 280 °C
CON1CCC2(CC1)OC(=O)C(c1cc(C)c(C)cc1C)=C2O | 199 to 204 °C
O=[N+]([O-])c1cc(Cl)ccc1NCCSSCCNc1ccc(Cl)cc1[N+](=O)[O-] | 187 to 188 °C

Compound | melting point
C[Si](C)(C)c1cccs1 | 61 to 62 °C
O=C1CN=C(c2ccccc2F)c2cc(Cl)ccc2N1CC(O)CO (configuration not stated) | 117 to 118 °C
O=[N+]([O-])c1c(Cl)cccc1-c1nc2ccccc2[nH]1 | > 260 °C
CCc1nn2ccc3c(c2c1C(C)CNC(C)=O)CCO3 (configuration not stated) | 151 to 153 °C
O=C(O)CCCOc1cccc(CCNC(=O)C2Cc3ccccc3N2S(=O)(=O)c2ccc(-c3cccc(C(F)(F)F)c3)cc2)c1 (configuration not stated) | 70 °C
CCn1cc(-c2sc(NC(=O)c3ccncc3)nc2-c2ccco2)ccc1=O | 285 to 289 °C
CCCc1ccccc1OCCCOc1ccc2c(=O)cc(C(=O)OCC)oc2c1 | 73 to 75 °C
COc1cc(F)cnc1OCC#Cc1ccc(Cl)nc1 | 101 to 102 °C
N#Cc1ccc(Sc2ccc3cc(Br)ccc3c2)cc1C(F)(F)F | 114 to 116 °C
CC1(C)C(=O)C(C)(C)c2cc(C(O)CN3CCN(c4nsc5ccccc45)CC3)ccc21 (configuration not stated) | 189 to 191 °C
N=c1nc(N)c2nc[nH]c2c(N)n1 | > 200 °C
Oc1ccc(-c2cc3ccccc3nc2Cl)cc1 | 164 to 166 °C
COc1ccc(Cc2c(C(=O)O)n(CC3CC3)c3ccccc23)cc1 | 162 to 163 °C
OCCC1CC2CCN1CC2 (configuration not stated) | 62 to 64 °C
COc1ccc(C2=NN(c3ccc(S(N)(=O)=O)cc3)C(=O)[C@H]3CC=CC[C@@H]23)cc1OC (relative stereo) | 181 to 183 °C
O=C(c1ccc2c(c1)OC(c1cccc(Cl)c1)(c1cccc(Cl)c1)O2)N1CCCCC1 | 54 °C
CC(Oc1ccc(Oc2ncc(Cl)cc2F)cc1)C(=O)O (configuration not stated) | 95 to 97 °C
O=Cc1ccc2c(c1)Cc1cc(Br)ccc1-2 | 161 to 170 °C
O=C(Nc1ccc(Br)cc1)c1cc2ccccc2o1 | 178 to 180 °C
CCc1cccc(CC)c1NC(=O)C1c2ccccc2COc2ccc(C(C)C)cc21 (configuration not stated) | 170 °C
CCOC(=O)c1cc(CC)sc1Nc1ccc([N+](=O)[O-])cc1N | 174 to 176 °C
Cc1nc(N2CCN(CC3CC3)C2=O)sc1C(=O)NCc1ccccn1 | 148 to 151 °C
